Results as given in BindingDB's records for doi:10.1016/s0960-894x(01)00185-8 (Dupont Pharmaceuticals, 2001).

Experiments:
[1] = biological target: Cyclin-dependent kinase 2/G1/S-specific cyclin-E1 (Homo sapiens, UniProt P24941); assay: Kinase Inhibition Assay
Protocol: (§1) The enzyme was assayed with substrate GST-Rb in the presence of 50 mM ATP/[gamma-32P] ATP, and capturing the 32-P labeled reaction products on GSH-Sepharose beads. […] Use of 32P-labeled ATP allows this transfer to be monitored by scintillation counting.

[2] = biological target: Cyclin-dependent kinase 4/G1/S-specific cyclin-D1 (Homo sapiens, UniProt P11802); assay: Kinase Inhibition Assay
Chain of Cyclin-dependent kinase 4/G1/S-specific cyclin-D1 (P11802 whole entry): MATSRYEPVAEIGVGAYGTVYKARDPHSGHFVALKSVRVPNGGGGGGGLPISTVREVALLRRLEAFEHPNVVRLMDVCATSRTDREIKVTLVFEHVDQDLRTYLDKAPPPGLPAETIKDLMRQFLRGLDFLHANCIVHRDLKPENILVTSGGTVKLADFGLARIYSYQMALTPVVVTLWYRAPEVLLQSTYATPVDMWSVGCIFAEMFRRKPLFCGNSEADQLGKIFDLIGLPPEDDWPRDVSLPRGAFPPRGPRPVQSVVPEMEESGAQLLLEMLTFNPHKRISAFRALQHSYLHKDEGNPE
Chain of Cyclin-dependent kinase 4/G1/S-specific cyclin-D1 (P24385 whole entry, further chain): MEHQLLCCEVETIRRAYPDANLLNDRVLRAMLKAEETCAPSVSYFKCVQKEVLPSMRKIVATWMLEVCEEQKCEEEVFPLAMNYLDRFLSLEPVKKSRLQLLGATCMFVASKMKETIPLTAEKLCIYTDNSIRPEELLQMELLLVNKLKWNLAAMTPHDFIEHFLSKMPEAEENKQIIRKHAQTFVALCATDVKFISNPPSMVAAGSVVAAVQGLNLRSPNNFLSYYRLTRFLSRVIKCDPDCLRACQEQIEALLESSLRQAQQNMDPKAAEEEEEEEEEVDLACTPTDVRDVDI
Protocol: as §1

CC(C)(C)Nc1nc(C(F)(F)F)nc2ccc(-c3cccc(-c4cccnc4)c3)cc12 [N-tert-butyl-6-[3-(pyridin-3-yl)phenyl]-2-(trifluoromethyl)quinazolin-4-amine] showed an IC50 [1] of 1.2 µM and an IC50 [2] of 8.3 µM.
